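Grown in 96-well plates, cells were treated for 48 hours with each compound at five concentrations. Insufficient inhibition: endpoint recorded as highest concentration tested. Here, GI50 denotes the concentration required for 50% inhibition of growth.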 The source made the active and inactive calls. Cut-off read from the data, not from the text of the source: active = GI50 up to about 1.1 µM and inactive = higher.
Assays:
Assay in all cases: NCI-60 cell line screen, 48 h
ACHN = system: ACHN
CAKI-1 = system: CAKI-1
HL-60 = system: HL-60
HOP-92 = system: HOP-92
HT-29 = system: HT-29
KM12 = system: KM12
MCF7 = system: MCF7
MDA-MB-435 = system: MDA-MB-435
NCI-H23 = system: NCI-H23
NCI-H460 = system: NCI-H460
OVCAR-4 = system: OVCAR-4
OVCAR-5 = system: OVCAR-5
PC-3 = system: PC-3
SF-295 = system: SF-295
SNB-19 = system: SNB-19
SW-620 = system: SW-620
UACC-257 = system: UACC-257
UACC-62 = system: UACC-62

SMILES | GI50 (ACHN) | GI50 (CAKI-1) | GI50 (HL-60) | GI50 (HOP-92) | GI50 (HT-29) | GI50 (KM12) | GI50 (MCF7) | GI50 (MDA-MB-435) | GI50 (NCI-H23) | GI50 (NCI-H460) | GI50 (OVCAR-4) | GI50 (OVCAR-5) | GI50 (PC-3) | GI50 (SF-295) | GI50 (SNB-19) | GI50 (SW-620) | GI50 (UACC-257) | GI50 (UACC-62)
O=C(Cc1ccc(Cl)cc1)Nc1ccc2oc(-c3ccccc3)nc2c1 | > 100 µM (inactive) | > 100 µM (inactive) | > 100 µM (inactive) | > 100 µM (inactive) | > 100 µM (inactive) | > 100 µM (inactive) | > 100 µM (inactive) | > 100 µM (inactive) | > 100 µM (inactive) | > 100 µM (inactive) | 29.5 µM (inactive) | > 100 µM (inactive) | > 100 µM (inactive) | > 100 µM (inactive) | 38.9 µM (inactive) | > 100 µM (inactive) | > 100 µM (inactive) | > 100 µM (inactive)
COC(=O)NC(=O)NC(Cc1ccccc1)NC(=O)OCc1ccccc1 (configuration not stated) | > 100 µM (inactive) | > 100 µM (inactive) | > 100 µM (inactive) | 18.1 µM (inactive) | > 100 µM (inactive) | > 100 µM (inactive) | > 100 µM (inactive) | > 100 µM (inactive) | 40.3 µM (inactive) | > 100 µM (inactive) | > 100 µM (inactive) | > 100 µM (inactive) | > 100 µM (inactive) | 35.5 µM (inactive) | 42.7 µM (inactive) | > 100 µM (inactive) | > 100 µM (inactive) | > 100 µM (inactive)
N=C(N)SC1c2ccccc2-c2cc([N+](=O)[O-])ccc21 (configuration not stated) | 6.53 µM (inactive) | 6.1 µM (inactive) | 2.61 µM (inactive) | 13.7 µM (inactive) | 3.66 µM (inactive) | 3.23 µM (inactive) | 3.24 µM (inactive) | 1.92 µM (inactive) | 4.84 µM (inactive) | 3.93 µM (inactive) | 5 µM (inactive) | 9.95 µM (inactive) | 3.78 µM (inactive) | 4.01 µM (inactive) | 3.66 µM (inactive) | 3.15 µM (inactive) | 7.45 µM (inactive) | 2.86 µM (inactive)
CC(=O)CCn1c(=S)sc2ccccc21 | > 100 µM (inactive) | 49.7 µM (inactive) | 17.5 µM (inactive) | > 100 µM (inactive) | > 100 µM (inactive) | > 100 µM (inactive) | > 100 µM (inactive) | > 100 µM (inactive) | > 100 µM (inactive) | > 100 µM (inactive) | > 100 µM (inactive) | > 100 µM (inactive) | > 100 µM (inactive) | > 100 µM (inactive) | > 100 µM (inactive) | > 100 µM (inactive) | > 100 µM (inactive) | > 100 µM (inactive)
O=Cc1ccc2c(c1)CC1(C2)Cc2ccc(C=O)cc2C1 | 24.4 µM (inactive) | 44.9 µM (inactive) | 2 µM (inactive) | 20.6 µM (inactive) | 24.5 µM (inactive) | 28.1 µM (inactive) | 31.8 µM (inactive) | 2.62 µM (inactive) | 17.6 µM (inactive) | 11.6 µM (inactive) | 12.4 µM (inactive) | > 77.1 µM (inactive) | 17.1 µM (inactive) | > 45.2 µM (inactive) | 25.1 µM (inactive) | 16.1 µM (inactive) | 18.8 µM (inactive) | 6.76 µM (inactive)
O=[N+]([O-])/C=C/c1cc2ccccc2[nH]1 | 17 µM (inactive) | 17.4 µM (inactive) | 4.33 µM (inactive) | 19.8 µM (inactive) | 15.8 µM (inactive) | 12.2 µM (inactive) | 4.03 µM (inactive) | 2.59 µM (inactive) | 13.1 µM (inactive) | 14.6 µM (inactive) | 14.1 µM (inactive) | 19.5 µM (inactive) | 15.2 µM (inactive) | 19.5 µM (inactive) | 17.5 µM (inactive) | 8.83 µM (inactive) | 15.4 µM (inactive) | 18.2 µM (inactive)
[N-]=[N+]=NC1=C(c2ccccc2)C(=O)c2cccc3cccc1c23 | 6.01 µM (inactive) | 33.6 µM (inactive) | 16.6 µM (inactive) | 17.7 µM (inactive) | 6.56 µM (inactive) | 8.02 µM (inactive) | 26.9 µM (inactive) | 68.4 µM (inactive) | 24.9 µM (inactive) | 5.79 µM (inactive) | 46.7 µM (inactive) | 48.5 µM (inactive) | 8.26 µM (inactive) | 11.2 µM (inactive) | 38.9 µM (inactive) | 29.9 µM (inactive) | 12.9 µM (inactive) | 5.86 µM (inactive)
Cc1cc2c(cc1Cl)Sc1nnc(C)n1S2(=O)=O | 11.9 µM (inactive) | 15.6 µM (inactive) | 6.78 µM (inactive) | 2.84 µM (inactive) | 18.5 µM (inactive) | 15.5 µM (inactive) | 4.44 µM (inactive) | 13 µM (inactive) | 12.9 µM (inactive) | 23.7 µM (inactive) | 12.5 µM (inactive) | 29.2 µM (inactive) | 15 µM (inactive) | 15.7 µM (inactive) | 23.5 µM (inactive) | 15.4 µM (inactive) | 13.9 µM (inactive) | 15 µM (inactive)
COc1c2ccoc2c(OC)c2oc(=O)ccc12 [ISOPIMPINELLIN] | > 100 µM (inactive) | 50.5 µM (inactive) | > 100 µM (inactive) | 1.99 µM (inactive) | > 100 µM (inactive) | > 100 µM (inactive) | > 100 µM (inactive) | > 100 µM (inactive) | > 100 µM (inactive) | > 100 µM (inactive) | > 100 µM (inactive) | > 100 µM (inactive) | > 100 µM (inactive) | > 100 µM (inactive) | > 100 µM (inactive) | > 100 µM (inactive) | > 100 µM (inactive) | 36.2 µM (inactive)
Nc1nc(Cl)c(N)c(NCC2(CO)CC(CCCc3ccccc3)C2)n1 (configuration not stated) | 35.6 µM (inactive) | 34.8 µM (inactive) | 0.117 µM (active) | 51.1 µM (inactive) |  | 21.5 µM (inactive) | 8.02 µM (inactive) | 11.6 µM (inactive) |  | 33.7 µM (inactive) | > 33.7 µM (inactive) | > 100 µM (inactive) | 17.9 µM (inactive) | 14 µM (inactive) | > 55.5 µM (inactive) | 40.1 µM (inactive) | 7.67 µM (inactive) | 24.1 µM (inactive)
COC1(CC[C@@H](C)COC2OC(CO)C(O)C(O)C2O)OC2C[C@H]3[C@@H]4CC[C@H]5C[C@@H](OC6OC(CO)C(OC7OC(CO)C(O)C(O)C7O)C(O)C6OC6OC(C)C(O)C(O)C6O)[C@H](O)C[C@]5(C)[C@H]4CC[C@]3(C)C2[C@@H]1C (some centres not stated) | 1.77 µM (inactive) | 2.01 µM (inactive) | 2.32 µM (inactive) | 4.24 µM (inactive) | 2.19 µM (inactive) | 2.12 µM (inactive) | 2.88 µM (inactive) | 1.84 µM (inactive) |  | 3.08 µM (inactive) | 1.97 µM (inactive) | 2.17 µM (inactive) | 1.87 µM (inactive) | 1.8 µM (inactive) | 1.87 µM (inactive) | 2.06 µM (inactive) | 1.97 µM (inactive) | 1.85 µM (inactive)
CCCC(=O)[O-].[Na+] [SODIUM BUTYRATE] | 4470 µM (inactive) | 2770 µM (inactive) | 721 µM (inactive) | 5680 µM (inactive) | 4000 µM (inactive) | 9440 µM (inactive) | 1000 µM (inactive) | 3470 µM (inactive) | 3970 µM (inactive) | 2390 µM (inactive) | 18700 µM (inactive) | 7980 µM (inactive) | 7100 µM (inactive) | 7660 µM (inactive) | 8170 µM (inactive) | 2310 µM (inactive) | 1000 µM (inactive) | 1650 µM (inactive)
CCOc1ccc(/N=N/c2ccc(-c3ccc(/N=N/c4c(O)ccc5cc(S(=O)(=O)O)cc(S(=O)(=O)O)c45)cc3)cc2)cc1 | > 100 µM (inactive) | > 100 µM (inactive) | > 100 µM (inactive) | > 100 µM (inactive) | > 100 µM (inactive) | > 100 µM (inactive) | > 100 µM (inactive) | > 100 µM (inactive) | > 100 µM (inactive) | > 100 µM (inactive) | > 100 µM (inactive) | > 100 µM (inactive) | > 100 µM (inactive) | > 100 µM (inactive) | > 100 µM (inactive) | > 100 µM (inactive) | > 100 µM (inactive) | > 100 µM (inactive)
CC(=O)Nc1sccc1S(=O)(=O)c1ccc(Cl)cc1 | > 100 µM (inactive) | > 100 µM (inactive) | > 100 µM (inactive) | > 100 µM (inactive) | > 100 µM (inactive) | > 100 µM (inactive) | > 100 µM (inactive) | > 100 µM (inactive) | > 100 µM (inactive) | > 100 µM (inactive) | > 100 µM (inactive) | > 100 µM (inactive) | > 100 µM (inactive) | > 100 µM (inactive) | > 100 µM (inactive) | > 100 µM (inactive) | > 100 µM (inactive) | > 100 µM (inactive)
O=[N+]([O-])c1ccc(O)c(/C=N/c2nc(-c3ccccc3)cs2)c1 | 31.4 µM (inactive) | 77.6 µM (inactive) | 34.2 µM (inactive) | 22.9 µM (inactive) | 34.2 µM (inactive) | 37.5 µM (inactive) | 26.8 µM (inactive) | 35.5 µM (inactive) | 20.3 µM (inactive) | 38.1 µM (inactive) | 58.3 µM (inactive) | 31.6 µM (inactive) | 33.3 µM (inactive) | 33.1 µM (inactive) | 29 µM (inactive) | 37.6 µM (inactive) | 45.9 µM (inactive) | 4.67 µM (inactive)
